Three compounds from US20240197672A1, “COMPOSITION FOR INHIBITING SKIN PIGMENTATION THROUGH AUTOPHAGY ACTIVITY CONTAINING PROCYANIDIN A2 AND QUERCETIN, AS ACTIVE INGREDIENTS” (KYUNGPOOK NATIONAL UNIVERSITY INDUSTRY-ACADEMIC COOPERATION …, priority 2022, published 2024) can be followed below.

The subject of one data set is mushroom tyrosinase. Briefly: Tyrosinase inhibitory activity (L-DOPA, DOPA chrome at 475 nm). The format is biochemical. Particulars: for tyrosinase inhibitory activity: Example 1, FIG. 1; for Inhibitory Activity (%): Example 2, Table 2.
In data set [1] the test system is MNT-1 cells. Briefly: Melanin production in MNT-1 cells (absorbance 490 nm). The format is cell-based, human. Particulars: MNT-1, 72 hours. On the procedure:
The melanin inhibitory effects of each substance were confirmed through an analysis of melanin production following treatment with procyanidin A2, quercetin, and their combination. Specifically, MNT-1 cells (human-derived melanoma skin cells) were treated for 72 hours with procyanidin A2, quercetin, and the combination at the maximum concentration without cytotoxicity according to Table 5. The negative control group was untreated, and arbutin, a tyrosinase inhibitor, was used as the positive control. Afterward, the media was removed, the cell bodies were dissolved with 1 N NaOH, heated at 95° C. for 5 minutes, and the absorbance was measured at 490 nm using a microplate reader (Molecular Devices, Sunnyvale, CA, USA).

Data set [2] relates to tyrosinase, TRP-1, TRP-2, MITF in MNT-1 cells. Description: Melanin synthesis-related protein expression (western blot). Type of data set: cell-based, human. Particulars: MNT-1, FIG. 5. The protocol:
(§1) Specifically, after treating with procyanidin A2, quercetin, and the combination, MNT-1 cells were washed twice in ice-cold PBS and lysed in ice-cold RIPA buffer (Sigma-Aldrich). Protein concentration was measured using a Bicinchoninic acid (BCA) protein assay kit (Pierce, Rockford, IL, USA), and 35 μg of protein was separated using sodium dodecyl sulfate-polyacrylamide gel electrophoresis (10%) and transferred to a nitrocellulose membrane (Whatman, Dassel, Germany). The membrane was blocked in 5% non-fat milk in TBST buffer (1:5000) and then treated with primary (1:1000) and secondary antibodies (Table 6). Protein bands were detected using SuperSignal West Femto maximum sensitivity substrate (Thermo Fisher Scientific, Rockford, IL, USA) and quantified using Image Lab™ software (version 5.2.1).
On the technique in general: A western blot detects proteins with antibodies after separation by electrophoresis.

Data set [3] deals with MNT-1 cells. Description: Cell viability / cytotoxicity, MTT assay. Type of data set: cell-based, human. Particulars: MNT-1, 72 hours. On the procedure: To examine the cell toxicity of procyanidin A2, quercetin, and their combination, a cell viability analysis was conducted. Specifically, cell survival and cytotoxicity were measured using the 3-(4,5-dimethylthiazol-2-yl)-2,5-diphenyltetrazoliumbromide (MTT) Assay. MNT-1 cells were seeded in a 96 well plate at 1×10^5 cells/well and cultured for 24 hours in a 37° C., 5% CO2 incubator. After that, each compound was treated according to Table 4 and cultured for 72 hours. Then, MTT solution at a final concentration of 0.5 mg/ml was added and reacted for 4 hours at 37° C. The media containing MTT solution was removed, and 100 μl of DMSO was treated in each well to dissolve the formazan precipitate formed in reaction with the living cells. Absorbance was measured at 550 nm using an ELISA reader (CLARIOstar Plus, BMG LABTECH, Germany).
Background: Formazan colour is commonly taken as a measure of viable cells.

Data set [4] has as its system LC3-II, ATG5, Beclin-1, p62, LC3-I in MNT-1 cells. Description: Autophagy activity-related protein expression (western blot). Type of data set: cell-based, human. Particulars: for expression levels of LC3-II, ATG5, and Beclin-1: MNT-1, FIG. 6. The protocol:
as §1
LC3-II, ATG5, and Beclin-1 are involved in the formation of autophagosomes and activate autophagy. In contrast, p62 and LC3-I, which show characteristics of being decomposed during autophagosome formation, decrease when autophagy activate. To verify the autophagy activity of procyanidin A2, quercetin, and their combination, the expression levels of autophagy-activity-related proteins were analyzed. The specific method for this experiment, except for using Table 8 for antibodies, was conducted in the same manner as the method in Example 5 for the analysis of melanin synthesis-related protein expression.

Setting [5] is: procyanidin A2 only, 50 μM, MNT-1.

Method for mushroom tyrosinase: In the reaction mixture, 0.5 ml of 0.175 M sodium phosphate buffer (pH 6.8), 0.2 ml of a substrate solution containing 10 mM L-DOPA, and 0.1 ml of the sample solution were mixed, followed by the addition of 0.2 ml of mushroom tyrosinase (110 unit/ml). The reaction was carried out for 2 minutes at 25° C., and the DOPA chrome produced in the reaction mixture was measured at 475 nm. Tyrosinase inhibitory activity was expressed as the percentage reduction in absorbance compared to the control group without sample solution.

`OC[C@H]1O[C@@H](Oc2ccc(O)cc2)[C@H](O)[C@@H](O)[C@@H]1O` [arbutin, reference compound] gave a tyrosinase inhibition with mushroom tyrosinase (300 μM, positive control, Example 1) of 58.79%. Also, in the data set on MNT-1 cells [1] (arbutin 1 mM), the “melanin production reduced by (NT set to 100%)” value is “about 57.1%”.
For `Oc1cc(O)c2c(c1)O[C@@]1(c3ccc(O)c(O)c3)Oc3cc(O)c4c(c3[C@@H]2[C@H]1O)O[C@H](c1ccc(O)c(O)c1)[C@H](O)C4` [procyanidin A2], in the data set on mushroom tyrosinase (2.5 μM), the tyrosinase inhibitory activity is reported as 29.82% and the “Inhibitory Activity (%)” value was found to be 30.27%. Also, in the data set with mushroom tyrosinase (5 μM), the tyrosinase inhibitory activity is on record as 51.12% and the “Inhibitory Activity (%)” value is 49.04%. The tyrosinase inhibitory activity in the data set on mushroom tyrosinase (10 μM) worked out at 68.81%. In addition, the “melanin production reduced to (NT set to 100%)” value in the data set with MNT-1 cells [1] (50 μM) worked out at 72.3%. For the same compound, in data set [2] (50 μM), the “protein expression of tyrosinase, TRP-1, and TRP-2” value was “reduction”. Also, the cytotoxicity result with MNT-1 cells [3] (100 μM) is recorded as “toxicity”. Moreover, in the data set with MNT-1 cells [3] (concentrations below 50 μM), the cytotoxicity entry is “no cytotoxicity”. Besides, in data set [4] (50 μM), the “expression levels of LC3-II, ATG5, and Beclin-1” value is “little to no significant change or only slight increases”. In data set [4] (setting [5]), the “ATG5 and Beclin-1 expression” value is reported as “slight increase”; the P62 expression result was “slight increase”; the “ratio of LC3-II to LC3-I” value is “remained similar to the control group”.
As to `O=c1c(O)c(-c2ccc(O)c(O)c2)oc2cc(O)cc(O)c12` [quercetin, 2-(3,4-dihydroxyphenyl)-3,5,7-trihydroxy-4H-chromen-4-one], the tyrosinase inhibitory activity in the data set with mushroom tyrosinase (2.5 μM) is given as 17.65%; with mushroom tyrosinase (5 μM), 32.08%; with mushroom tyrosinase (10 μM), 49.44%. In addition, the “Inhibitory Activity (%)” value in the data set with mushroom tyrosinase (2.5 μM) is 17.05%; in the data set on mushroom tyrosinase (5 μM), 31.61%. For the same compound, the “melanin production reduced to (NT set to 100%)” value in the data set with MNT-1 cells [1] (20 μM) is 64.5%. Also, the “protein expression of tyrosinase, TRP-1, and TRP-2” value in data set [2] (20 μM) was “reduction”. In the data set with MNT-1 cells [3] (approximately 25 μM and below), the cytotoxicity result was “no cytotoxicity”. Besides, the “expression levels of LC3-II, ATG5, and Beclin-1” value in data set [4] (20 μM) was “little to no significant change or only slight increases”.
